Assay results as given in paper PMC12040169 (PLOS Biology, 2025).

Test: in vitro
Conditions: human, hela cells, % viability

Row | SMILES | viability at 28.5 h, 10 µM [%]
1 | CN(C)c1nc(N(C)C)nc(N(C#N)S(=O)(=O)c2ccccc2Cl)n1 [CBK269036] | 88.3
2 | COc1cc(C(=S)N2CCN(C)CC2)ccc1OCC(N)=O [CBK269037] | 84.7
3 | O=C(NC(=S)Nc1ccc(-c2ccc(CO)o2)cc1)c1ccc2c(c1)OCCO2 [CBK269038] | 82.9
4 | Cc1ccc(N(CC(=O)NCC2CCCO2)S(=O)(=O)c2ccc(Cl)cc2)cc1 (stereo not drawn) [CBK269039] | 104
5 | Cc1occc1-c1nnc(SCC(=O)Nc2c(C)n(C)n(-c3ccccc3)c2=O)o1 [CBK269042] | 90.9
6 | CC(=O)c1ccc(NC(=O)CSc2nc(O)cc(-c3ccccc3)n2)cc1 [CBK269048] | 96
7 | O=C(O)c1ccccc1-c1ccc(-c2cc(C(=O)O)c3cc(F)ccc3n2)o1 [CBK269051] | 98.8
8 | O=C(COc1ccc(S(=O)(=O)N2CCCCC2)cc1)NCc1ccncc1 [CBK269053] | 92.5
9 | CCCSc1ncc(Cl)c(C(=O)Nc2ccc(S(=O)(=O)N3CC(C)OC(C)C3)cc2)n1 (stereo not drawn) [CBK269055] | 100
10 | COc1ccccc1-c1noc(CSc2nnc(-c3ccccc3)n2-c2ccc(C)c(C)c2)n1 [CBK269058] | 105
11 | Cc1cc(C)cc(N(C(C)C(=O)N2CCN(Cc3ccc4c(c3)OCO4)CC2)S(C)(=O)=O)c1 (stereo not drawn) [CBK269060] | 90.3
12 | O=C(CSc1nnc(Cc2ccccc2)n1-c1ccc(Cl)cc1)Nc1cc(Cl)ccc1O [CBK269061] | 99.9
13 | COc1cccc(/C=C\c2onc(C)c2[N+](=O)[O-])c1OCC(=O)O [CBK269063] | 104
14 | CSc1ncc(Cl)c(C(=O)Nc2nc(-c3ccc(S(=O)(=O)N4CCOCC4)cc3)cs2)n1 [CBK269064] | 102
15 | Cc1ccc(OC(C)C(=O)NNC(=O)c2ccc([N+](=O)[O-])cc2)cc1 (stereo not drawn) [CBK269065] | 104
16 | CCN1CCN(c2c(Cl)cccc2NC(=O)c2ccc(N3CCOCC3)c([N+](=O)[O-])c2)CC1 [CBK269066] | 98.8
17 | O=S(=O)(N1CCOCC1)N1CCCN(S(=O)(=O)N2CCOCC2)CC1 [CBK269068] | 103
18 | Cc1ccc(-n2c(SCC(=O)N3CCCCC3)nnc2-c2cc(Br)ccc2O)c(C)c1 [CBK269070] | 94.7
19 | O=C(c1ccncc1)c1ccc(N2CCN(C3CC(=O)N(Cc4cccs4)C3=O)CC2)cc1 (stereo not drawn) [CBK269074] | 94.6
20 | CCOc1ccccc1-c1noc(CSc2nnc(-c3ccncc3)n2-c2cccc(C)c2)n1 [CBK269076] | 104
21 | O=C(CSc1nc(Nc2ccccc2)nc(N2CCOCC2)n1)N1CCN(c2ccccc2)CC1 [CBK269078] | 98.5

Row | SMILES | viability at 28.5 h, 10 µM [%]
22 | CN1CCN(c2ccc(NC(=O)c3ccc(OCc4ccccc4)cc3)cc2Cl)CC1 [CBK269080] | 96.2
23 | CN(C)S(=O)(=O)N(CC(=O)NCc1ccccc1Cl)c1ccccc1 [CBK269081] | 103
24 | Cc1nc(NC(=N)Nc2ccccc2C(F)(F)F)[nH]c(=O)c1Cc1ccccc1 [CBK269083] | 99.8
25 | Cc1ccc(OCCn2c(=N)n(CCN3CCOCC3)c3ccccc32)cc1 [CBK269085B] | 97.9
26 | CNC(=O)c1c(NC(=O)c2nc(SCc3ccccc3)ncc2Cl)sc2c1CCCC2 [CBK269087] | 93.9
27 | Clc1ccccc1-c1nnc(Cn2c3ccc(Br)cc3c3nc4ccccc4nc32)o1 [CBK269091] | 88.5
28 | Cn1c(=O)c2[nH]c(-c3ccc(OCC(=O)NCCc4ccccc4)cc3)nc2n(C)c1=O [CBK269092] | 97.9
29 | O=C(CCn1cnc2ccccc21)NNC(=O)Nc1cccc(C(F)(F)F)c1 [CBK269093] | 93.9
30 | O=C(c1ccccc1[N+](=O)[O-])n1nc(-c2cccnc2)nc1NCc1cccs1 [CBK269094] | 99.5
31 | O=C(Cc1ccccc1)N1CCN(S(=O)(=O)N2CCCCC2)CC1 [CBK269097] | 85.2
32 | COc1ccc(S(=O)(=O)N(C)c2ccc(C(=O)NCc3ccccn3)cc2)cc1 [CBK269099] | 88.1
33 | CC(=O)c1c(C)nn(C(C)CC(=O)O)c1C (stereo not drawn) [CBK269101] | 103
34 | C=CCn1c(SCC(=O)Nc2cc(Cl)ccc2O)nnc1-c1ccccc1O [CBK269102] | 100
35 | CN(C)CCCn1c(=O)[nH]c2sc3c(c2c1=N)CC(C)(C)OC3 [CBK269103] | 107
36 | CSc1nsc(SCC(=O)c2ccc(Oc3ccccc3)cc2)n1 [CBK269104] | 96.8
37 | Cc1cc2nc(/C(C#N)=C/c3cc(C)n(-c4ccc(C(=O)O)cc4)c3C)[nH]c2cc1C [CBK269105] | 92.1
38 | Cc1cc2ncc(-c3[nH]ncc3[N+](=O)[O-])cn2n1 [CBK269106] | 98.1
39 | O=C(CSc1nc(N2CCOCC2)nc(N2CCOCC2)n1)c1ccc([N+](=O)[O-])cc1 [CBK269107] | 86.9
40 | Cc1c(Br)c([N+](=O)[O-])nn1C(C)C(=O)NCc1ccco1 (stereo not drawn) [CBK269108] | 92.2
41 | CCOc1ccc2nc(NC(=O)c3nc(SCc4ccccc4)ncc3Cl)sc2c1 [CBK269109] | 97.1
42 | Cc1ccc(C)c(NS(=O)(=O)c2cc(C(=O)NCc3ccccn3)ccc2C)c1 [CBK269110] | 98.3

Row | SMILES | viability at 28.5 h, 10 µM [%]
43 | Cc1c(Cl)c([N+](=O)[O-])nn1CCCC(=O)Nc1sc2c(c1C#N)CCC(C(C)(C)C)C2 (stereo not drawn) [CBK269111] | 108
44 | Cc1ccc(-n2c(SCC(=O)N3CCOCC3)nnc2-c2ccccc2O)c(C)c1 [CBK269112] | 88.1
45 | Cc1ccc(C(C)C)c(OC(=O)c2ccc3nccnc3c2)c1 [CBK269114] | 62.7
46 | O=S1(=O)N=C(Nc2ccc(S(=O)(=O)N3CCOCC3)cc2)c2ccccc21 [CBK269116] | 91
47 | O=C(O)CCC(=O)N1CCN(c2ccc(C(=O)c3ccc(F)cc3)cc2)CC1 [CBK269119] | 112
48 | Cc1ccc(NS(=O)(=O)c2ccc(OCC(=O)Nc3ccccc3C(F)(F)F)cc2)cc1 [CBK269120] | 86.4
49 | COc1ccc(-n2c(SCCCN3C(=O)c4cccc5cccc(c45)C3=O)nnc2-c2ccncc2)cc1 [CBK269123] | 94.2
50 | COc1ccc(C(CC(=O)O)NC(=O)c2ccc(Cl)cc2Cl)cc1 (stereo not drawn) [CBK269131] | 91.8
51 | NS(=O)(=O)c1ccc(CCNC(=O)Nc2ccc(Cl)c(Cl)c2)cc1 [CBK269133] | 90.3
52 | Cc1cc(C)n(-c2nc3ccccc3nc2N2CCN(S(=O)(=O)c3ccc4ccccc4c3)CC2)n1 [CBK269134] | 103
53 | COCCNC(=O)C1CCCCC1C(=O)O (stereo not drawn) [CBK269135] | 108
54 | Cc1nn(C(C)CC(=O)O)c(C)c1Br (stereo not drawn) [CBK269138] | 91.7
55 | N#C/C(=C/c1ccc(Sc2nc3ccccc3[nH]2)o1)c1ccc(C(=O)O)cc1 [CBK269141] | 112
56 | Oc1ccc(Nc2ncnc3scc(-c4ccccc4)c23)cc1 [CBK269146C] | 108
57 | O=C(NCC(c1ccccc1)c1c[nH]c2ccccc12)Nc1ccc(Cl)cc1 (stereo not drawn) [CBK269147] | 91.9
58 | COc1ccc(CC(=O)Nc2cccc(-c3cn4ccc(C)cc4n3)c2)cc1OC [CBK269148] | 84.5
59 | Cn1c(SCC(=O)O)nnc1-c1cc(Br)ccc1O [CBK269150] | 103
60 | CCc1cccc(CN2CCC(CNC(=O)Nc3ccc(Cl)cc3)CC2)c1 [CBK269151] | 93.4
61 | CCOC(=O)c1cnc(SCC(=O)N2CCN(c3ccccc3)CC2)nc1N [CBK269159] | 90.5
62 | O=C(O)CCCNS(=O)(=O)c1ccc(I)cc1 [CBK269160] | 102
63 | COc1ccc(S(=O)(=O)N2CCCC(C(=O)Nc3ccc(C(N)=O)cc3)C2)cc1C (stereo not drawn) [CBK269163] | 99.4

Row | SMILES | viability at 28.5 h, 10 µM [%]
64 | O=C(O)c1cccc(CSc2nnc(-c3ccccc3)c(-c3ccccc3)n2)c1 [CBK269165] | 97.6
65 | O=C(CSCCO)Nc1ccc(Oc2ccccc2)cc1 [CBK269167] | 98.4
66 | COC(=O)c1c(NC(=O)C(=O)NCc2cccnc2)sc2c1CCCC2 [CBK269170] | 88.8
67 | COc1cccc(C(=O)c2snc(Nc3ccc(F)cc3)c2N)c1 [CBK269173] | 117
68 | COc1ccccc1C(=O)NCCNC(=O)c1ccccn1 [CBK269174] | 104
69 | Cc1cc2occ(CC(=O)NCc3ccccn3)c2c(C)c1Cl [CBK269175] | 97.5
70 | CN1CCN(Cc2nc3c(c(=O)n(C)c(=O)n3C)n2Cc2c(F)cccc2Cl)CC1 [CBK269179] | 98.3
71 | CC1(C)Cc2nc3sc4c(=O)n(CC(=O)NCCc5ccccc5)cnc4c3cc2CS1 [CBK269180] | 97.8
72 | O=C(c1ccccc1Cl)N1N=C(c2cccnc2)CC1c1ccccc1O (stereo not drawn) [CBK269182] | 102
73 | Cc1nnc2sc(-c3cccc4ccccc34)nn12 [CBK269185] | 39.8
74 | CC1CCCCN1Cc1nc2c(c(=O)n(C)c(=O)n2C)n1CCc1ccccc1 (stereo not drawn) [CBK269189] | 117
75 | COc1ccc(N2CCN(C(=S)c3ccc(OCC(N)=O)cc3)CC2)cc1 [CBK269190] | 100
76 | O=C(Nc1cccc(F)c1)C(c1ccccc1)N1CCOCC1 (stereo not drawn) [CBK269191] | 84.5
77 | CCOc1ccc(CNc2ccc(N3CCOCC3)c(C(=O)O)c2)cc1OC [CBK269192] | 93
78 | O=C(NCCCNC(=O)c1ccccn1)c1ccc(Cl)cc1 [CBK269193] | 88.5
79 | Cc1ncc([N+](=O)[O-])n1CC(=O)NC1CCCCCC1 [CBK269194] | 97.4
80 | COc1cc(Cl)cc(CNCCO)c1OC(C)C [CBK269196C] | 86.7
81 | O=C1CC(N2CCN(C3CC(=O)N(Cc4ccccc4)C3=O)CC2)C(=O)N1Cc1ccccc1 (stereo not drawn) [CBK269198] | 122
82 | CC1CCCCN1Cc1nc2c(c(=O)n(C)c(=O)n2C)n1Cc1ccccc1 (stereo not drawn) [CBK269203] | 105
83 | CC1(C)CC(=O)C2=C(C1)c1onc(N)c1C2Cc1ccccc1 (stereo not drawn) [CBK269206] | 110

Same assay, conditions: human, hela cells, % viability, bulk resorufin, single well

Row | SMILES | viability at 28.5 h, 10 µM [%]
84 | Cc1cccc(N2C(=O)NC(=O)C(CCc3ccccn3)(CCc3ccccn3)C2=O)c1C [CBK269075] | 91.7
